Data taken from ChEMBL document CHEMBL4813934, “Investigation of Selected Flavonoid Derivatives as Potent FLT3 Inhibitors for the Potential Treatment of Acute Myeloid Leukemia” (J Nat Prod, 2021).
Activity calls are given as the source filed them. No cut-off for these calls is given here.

How the values were obtained:
[1] = target: T1, Receptor-type tyrosine-protein kinase FLT3 (Homo sapiens, UniProt P36888); test: Inhibition of recombinant His-tagged human FLT3 (564 to 958 residues) expressed in baculovirus expression system using tyr 02 as substrate incubated for 1 hr by Z'-LYTE assay
T1 sequence (P36888 whole entry): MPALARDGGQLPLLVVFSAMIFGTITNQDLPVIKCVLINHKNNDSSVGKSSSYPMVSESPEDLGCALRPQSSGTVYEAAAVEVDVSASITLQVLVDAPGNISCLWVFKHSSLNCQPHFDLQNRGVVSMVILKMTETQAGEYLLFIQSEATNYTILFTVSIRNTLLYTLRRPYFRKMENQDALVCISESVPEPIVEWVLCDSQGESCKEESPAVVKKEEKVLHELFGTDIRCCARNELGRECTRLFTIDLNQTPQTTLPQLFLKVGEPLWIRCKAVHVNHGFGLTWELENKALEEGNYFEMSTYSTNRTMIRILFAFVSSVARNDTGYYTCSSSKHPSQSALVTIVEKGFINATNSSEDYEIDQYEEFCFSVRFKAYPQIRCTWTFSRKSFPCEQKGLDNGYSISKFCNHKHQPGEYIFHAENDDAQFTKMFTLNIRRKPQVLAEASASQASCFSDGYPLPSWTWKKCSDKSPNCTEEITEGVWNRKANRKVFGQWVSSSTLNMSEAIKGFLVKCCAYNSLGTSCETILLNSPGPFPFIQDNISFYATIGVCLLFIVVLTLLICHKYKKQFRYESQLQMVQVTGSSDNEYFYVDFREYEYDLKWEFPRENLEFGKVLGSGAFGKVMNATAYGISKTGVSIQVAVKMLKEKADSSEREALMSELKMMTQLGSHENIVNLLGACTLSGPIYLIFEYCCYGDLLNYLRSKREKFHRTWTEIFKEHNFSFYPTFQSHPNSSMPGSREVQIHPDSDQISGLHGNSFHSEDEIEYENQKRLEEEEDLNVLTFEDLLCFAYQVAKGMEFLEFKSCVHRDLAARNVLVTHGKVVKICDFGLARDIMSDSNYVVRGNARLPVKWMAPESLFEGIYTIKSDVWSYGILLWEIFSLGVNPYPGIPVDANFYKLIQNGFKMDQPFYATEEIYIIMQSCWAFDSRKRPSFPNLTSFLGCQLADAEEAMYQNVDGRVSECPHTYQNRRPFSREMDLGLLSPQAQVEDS

[2] = target: Receptor-type tyrosine-protein kinase FLT3 (Homo sapiens) (UniProt P36888); test: Inhibition of recombinant His-tagged human FLT3 (564 to 958 residues) expressed in baculovirus expression system at 10 uM using tyr 02 as substrate incubated for 1 hr by Z'-LYTE assay relative to control
MV4-11 [3] = test: Cytotoxicity against human MV4-11 cells assessed as reduction in cell viability measured after 72 hrs by MTT assay; type: functional, cell-based; details: MV4-11, 72 h
MV4-11 [4] = test: Cell cycle arrest in human MV4-11 cells assessed as increase in accumulation at sub-G1 phase at 30 uM measured after 72 hrs by propidium iodide/RNaseA staining based flow cytometry analysis; type: functional
MOLM-13 [5] = test: Cell cycle arrest in human MOLM-13 cells assessed as accumulation at G0/G1 phase at 0.3 to 3 uM measured after 72 hrs by propidium iodide/RNaseA staining based flow cytometry analysis; type: functional; details: dose 0.3-3 µM
MOLM-13 [6] = test: Cytotoxicity against human MOLM-13 cells assessed as reduction in cell viability measured after 72 hrs by MTT assay; type: functional, cell-based; details: MOLM-13, 72 h
[7] = target: Receptor-type tyrosine-protein kinase FLT3 (Homo sapiens, UniProt P36888, ITD); test: Inhibition of recombinant N-terminal GST/His6-tagged human FLT3 ITD mutant (571 to 993 residues) expressed in Sf9 insect cells incubated for 1 hr by LanthaScreen assay
[8] = target: Receptor-type tyrosine-protein kinase FLT3 (Homo sapiens, UniProt P36888, D835Y); test: Inhibition of recombinant His-tagged human FLT3 D835Y mutant (564 to 958 residues) expressed in baculovirus expression system using tyr 02 as substrate incubated for 1 hr by Z'-LYTE assay
MV4-11 [9] = test: Cell cycle arrest in human MV4-11 cells assessed as accumulation at sub-G1 phase at 0.3 uM measured after 72 hrs by propidium iodide/RNaseA staining based flow cytometry analysis (reference value: 7.43 %); type: functional
MOLM-13 [10] = test: Cell cycle arrest in human MOLM-13 cells assessed as accumulation at G0/G1 phase at 0.3 uM measured after 72 hrs by propidium iodide/RNaseA staining based flow cytometry analysis (reference value: 53.92 %); type: functional
MOLM-13 [11] = test: Cell cycle arrest in human MOLM-13 cells assessed as accumulation at S phase at 0.3 uM measured after 72 hrs by propidium iodide/RNaseA staining based flow cytometry analysis (reference value: 11.14 %); type: functional
MV4-11 [12] = test: Cell cycle arrest in human MV4-11 cells assessed as accumulation at G2/M phase at 0.3 uM measured after 72 hrs by propidium iodide/RNaseA staining based flow cytometry analysis (reference value: 26.26 %); type: functional
MOLM-13 [13] = test: Cell cycle arrest in human MOLM-13 cells assessed as accumulation at sub-G1 phase at 3 uM measured after 72 hrs by propidium iodide/RNaseA staining based flow cytometry analysis (reference value: 13.76 %); type: functional
MOLM-13 [14] = test: Cell cycle arrest in human MOLM-13 cells assessed as accumulation at sub-G1 phase at 30 uM measured after 72 hrs by propidium iodide/RNaseA staining based flow cytometry analysis (reference value: 13.76 %); type: functional
MOLM-13 [15] = test: Cell cycle arrest in human MOLM-13 cells assessed as accumulation at S phase at 10 uM measured after 72 hrs by propidium iodide/RNaseA staining based flow cytometry analysis (reference value: 11.14 %); type: functional
MV4-11 [16] = test: Cell cycle arrest in human MV4-11 cells assessed as accumulation at G2/M phase at 10 uM measured after 72 hrs by propidium iodide/RNaseA staining based flow cytometry analysis (reference value: 26.26 %); type: functional
MOLM-13 [17] = test: Cell cycle arrest in human MOLM-13 cells assessed as accumulation at G0/G1 phase at 3 uM measured after 72 hrs by propidium iodide/RNaseA staining based flow cytometry analysis (reference value: 53.92 %); type: functional
MOLM-13 [18] = test: Cell cycle arrest in human MOLM-13 cells assessed as accumulation at S phase at 3 uM measured after 72 hrs by propidium iodide/RNaseA staining based flow cytometry analysis (reference value: 11.14 %); type: functional
MOLM-13 [19] = test: Cell cycle arrest in human MOLM-13 cells assessed as accumulation at G2/M phase at 10 uM measured after 72 hrs by propidium iodide/RNaseA staining based flow cytometry analysis (reference value: 20.36 %); type: functional
MV4-11 [20] = test: Cell cycle arrest in human MV4-11 cells assessed as accumulation at S phase at 10 uM measured after 72 hrs by propidium iodide/RNaseA staining based flow cytometry analysis (reference value: 17.51 %); type: functional
MOLM-13 [21] = test: Cell cycle arrest in human MOLM-13 cells assessed as accumulation at sub-G1 phase at 10 uM measured after 72 hrs by propidium iodide/RNaseA staining based flow cytometry analysis (reference value: 13.76 %); type: functional
MV4-11 [22] = test: Cell cycle arrest in human MV4-11 cells assessed as accumulation at G0/G1 phase at 10 uM measured after 72 hrs by propidium iodide/RNaseA staining based flow cytometry analysis (reference value: 50.06 %); type: functional
MV4-11 [23] = test: Cell cycle arrest in human MV4-11 cells assessed as accumulation at S phase at 30 uM measured after 72 hrs by propidium iodide/RNaseA staining based flow cytometry analysis (reference value: 17.51 %); type: functional
MV4-11 [24] = test: Cell cycle arrest in human MV4-11 cells assessed as accumulation at S phase at 3 uM measured after 72 hrs by propidium iodide/RNaseA staining based flow cytometry analysis (reference value: 17.51 %); type: functional
MV4-11 [25] = test: Cell cycle arrest in human MV4-11 cells assessed as accumulation at G0/G1 phase at 0.3 uM measured after 72 hrs by propidium iodide/RNaseA staining based flow cytometry analysis (reference value: 50.06 %); type: functional
MV4-11 [26] = test: Cell cycle arrest in human MV4-11 cells assessed as accumulation at sub-G1 phase at 30 uM measured after 72 hrs by propidium iodide/RNaseA staining based flow cytometry analysis (reference value: 7.43 %); type: functional
MV4-11 [27] = test: Cell cycle arrest in human MV4-11 cells assessed as accumulation at G2/M phase at 3 uM measured after 72 hrs by propidium iodide/RNaseA staining based flow cytometry analysis (reference value: 26.26 %); type: functional
MOLM-13 [28] = test: Cell cycle arrest in human MOLM-13 cells assessed as accumulation at G2/M phase at 0.3 uM measured after 72 hrs by propidium iodide/RNaseA staining based flow cytometry analysis (reference value: 20.36 %); type: functional
MOLM-13 [29] = test: Cell cycle arrest in human MOLM-13 cells assessed as accumulation at G2/M phase at 30 uM measured after 72 hrs by propidium iodide/RNaseA staining based flow cytometry analysis (reference value: 20.36 %); type: functional
MV4-11 [30] = test: Cell cycle arrest in human MV4-11 cells assessed as accumulation at sub-G1 phase at 10 uM measured after 72 hrs by propidium iodide/RNaseA staining based flow cytometry analysis (reference value: 7.43 %); type: functional
MOLM-13 [31] = test: Cell cycle arrest in human MOLM-13 cells assessed as accumulation at G0/G1 phase at 30 uM measured after 72 hrs by propidium iodide/RNaseA staining based flow cytometry analysis (reference value: 53.92 %); type: functional
MV4-11 [32] = test: Cell cycle arrest in human MV4-11 cells assessed as accumulation at G0/G1 phase at 3 uM measured after 72 hrs by propidium iodide/RNaseA staining based flow cytometry analysis (reference value: 50.06 %); type: functional
MOLM-13 [33] = test: Cell cycle arrest in human MOLM-13 cells assessed as accumulation at sub-G1 phase at 0.3 uM measured after 72 hrs by propidium iodide/RNaseA staining based flow cytometry analysis (reference value: 13.76 %); type: functional
MV4-11 [34] = test: Cell cycle arrest in human MV4-11 cells assessed as accumulation at S phase at 0.3 uM measured after 72 hrs by propidium iodide/RNaseA staining based flow cytometry analysis (reference value: 17.51 %); type: functional
MV4-11 [35] = test: Cell cycle arrest in human MV4-11 cells assessed as accumulation at G0/G1 phase at 30 uM measured after 72 hrs by propidium iodide/RNaseA staining based flow cytometry analysis (reference value: 50.06 %); type: functional
MV4-11 [36] = test: Cell cycle arrest in human MV4-11 cells assessed as accumulation at sub-G1 phase at 3 uM measured after 72 hrs by propidium iodide/RNaseA staining based flow cytometry analysis (reference value: 7.43 %); type: functional
MOLM-13 [37] = test: Cell cycle arrest in human MOLM-13 cells assessed as accumulation at S phase at 30 uM measured after 72 hrs by propidium iodide/RNaseA staining based flow cytometry analysis (reference value: 11.14 %); type: functional
MV4-11 [38] = test: Cell cycle arrest in human MV4-11 cells assessed as accumulation at G2/M phase at 30 uM measured after 72 hrs by propidium iodide/RNaseA staining based flow cytometry analysis (reference value: 26.26 %); type: functional
MOLM-13 [39] = test: Cell cycle arrest in human MOLM-13 cells assessed as accumulation at G0/G1 phase at 10 uM measured after 72 hrs by propidium iodide/RNaseA staining based flow cytometry analysis (reference value: 53.92 %); type: functional
MOLM-13 [40] = test: Cell cycle arrest in human MOLM-13 cells assessed as accumulation at G2/M phase at 3 uM measured after 72 hrs by propidium iodide/RNaseA staining based flow cytometry analysis (reference value: 20.36 %); type: functional

## COc1c(O)cc2oc(-c3ccc(O)cc3)cc(=O)c2c1O [HISPIDULIN]
[1]
  IC50: 440 nM
[2]
  inhibition: > 80%
MV4-11 [3]
  IC50: 6800 nM
MV4-11 [4]
  Activity: Active
MOLM-13 [5]
  Activity: Active
MOLM-13 [6]
  IC50: 7000 nM
[7]
  IC50: 390 nM
[8]
  IC50: 230 nM

## COc1ccc(-c2cc(=O)c3c(O)c(OC)c(O)cc3o2)cc1 [PECTOLINARIGENIN]
[1]
  IC50: 650 nM
[2]
  inhibition: > 80%
MV4-11 [3]
  IC50: 7900 nM
MOLM-13 [6]
  IC50: 5900 nM
[7]
  IC50: 880 nM
[8]
  IC50: 580 nM

## COc1ccc(-c2cc(=O)c3c(O)c(OC)c(OC)cc3o2)cc1 [SALVIGENIN]
MV4-11 [9]
  Activity: 6.78%
MOLM-13 [10]
  Activity: 59.22%
MOLM-13 [11]
  Activity: 10.48%
MV4-11 [12]
  Activity: 25.07%
MOLM-13 [13]
  Activity: 19.21%
MOLM-13 [14]
  Activity: 43.19%
[1]
  IC50: 550 nM
MOLM-13 [15]
  Activity: 5.4%
MV4-11 [16]
  Activity: 10.19%
[2]
  inhibition: > 80%
MOLM-13 [17]
  Activity: 59.78%
MOLM-13 [18]
  Activity: 5.26%
MOLM-13 [19]
  Activity: 11.15%
MV4-11 [20]
  Activity: 6.62%
MOLM-13 [21]
  Activity: 40.89%
MV4-11 [22]
  Activity: 69.17%
MV4-11 [23]
  Activity: 5.91%
MV4-11 [24]
  Activity: 8.74%
MV4-11 [25]
  Activity: 50.11%
MV4-11 [26]
  Activity: 9.4%
MV4-11 [27]
  Activity: 14.37%
MV4-11 [3]
  IC50: 2600 nM
MOLM-13 [28]
  Activity: 20.25%
MOLM-13 [29]
  Activity: 11.69%
MV4-11 [4]
  Activity: Active
MV4-11 [30]
  Activity: 14.62%
MOLM-13 [31]
  Activity: 40.99%
MOLM-13 [5]
  Activity: Active
MV4-11 [32]
  Activity: 70.55%
MOLM-13 [33]
  Activity: 9.93%
MV4-11 [34]
  Activity: 20.59%
MOLM-13 [6]
  IC50: 2600 nM
MV4-11 [35]
  Activity: 73.88%
MV4-11 [36]
  Activity: 6.83%
MOLM-13 [37]
  Activity: 4.05%
MV4-11 [38]
  Activity: 11.25%
[7]
  IC50: 580 nM
MOLM-13 [39]
  Activity: 42.74%
[8]
  IC50: 290 nM
MOLM-13 [40]
  Activity: 15.19%
